Test results published in US20020107283A1, “Carbamate compounds for use in preventing or treating neuropathic pain and cluster and migraine headache-associated pain” (priority 2000, published 2002).

Legend:
[1] = test system: L5 and L6 spinal nerve ligated rats, mechanical allodynia; assay: Antiallodynic activity, electronic Von Frey probes, L5 and L6 spinal nerve ligation; assay type: in vivo, Rj: Wistar (Han) rats
Method: Pathogen-free, male Rj: Wistar (Han) rats (300-380 g) were purchased from Elevage Janvier, 53940 Le Genest-Saint-Isle, France. The animals were maintained on a 12-h light/dark cycle (lights on from 7:00-19:00) in a controlled ambient temperature of 21±1° C., and relative humidity maintained at 40-70%. The animals had free access to food (UAR 113) and tap water until tested.
Rats were anesthetized (sodium pentobarbital 40 mg/kg i.p.). A ligature was tied tightly around the left L5 and L6 spinal nerves. The rats received an i.m. injection of 50 000 IU Penicillin (Diamant®) and were allowed to recover. This procedure results in mechanical allodynia in the left hind paw. Two weeks after the surgery, when the allodynic state was fully developed, rats were submitted consecutively to tactile stimulation of both the non-lesioned and the lesioned hindpaws.
The animals were placed on an elevated grid floor in Plexiglass boxes (19×11.5×13 cm). The tip of an electronic Von Frey probe (Bioseb, Model 1610) was then applied with increasing pressure to the lesioned and non-lesioned hindpaws and the force required to induce paw-withdrawal was automatically recorded. Prior to receiving drug treatment all animals were submitted to tactile stimulation and assigned to treatment groups matched on the basis of their pain response. This procedure was carried out 3 times for each paw and the mean paw force was calculated to provide basic scores per animal. Data were expressed as percent change (means ±SEM) of effectiveness from the controls. Statistical analysis was done using non-paired and paired Student's t tests.
As summarized in Table 2 below, an enantiomer of Formula (Ib) substantially free of other enantiomers was evaluated at the doses 10, 30 and 100 mg/kg (n=8), administered p.o. in a volume of 5 mL/kg. Morphine (128 mg/kg) was used as reference substance. Control animals received a p.o. administration of vehicle. The test was performed blind 30, 60 and 90 minutes after drug administration.

[2] = test system: Chung model of neuropathic pain (L5 spinal nerve ligated rats, mechanical allodynia); assay: Antiallodynic activity in the Chung model, manually applied von Frey probes; assay type: in vivo, Sprague-Dawley rats
Description: The procedure used to test the antiallodynic activity of an enantiomer of Formula (I) substantially free of other enantiomers was the procedure for the measurement of allodynia found in the Chung Model (Kim S. H. and Chung J. M., An Experimental Model for Peripheral Neuropathy Produced by Segmental Spinal Nerve Ligation in the Rat, Pain, 1992, 50, 355-363).
Pathogen-free, male albino Sprague-Dawley rats, 200 g, were purchased from Harlan Industries (Indianapolis, Ind.) and maintained on a 12-h light/dark cycle (lights on at 06:00 h) in a climate-controlled room with food and water available ad libitum up to the time of the testing and food withdrawn 18 hr prior to testing.
The rats were anesthetized with isoflurane inhalant anesthesia. The left lumbar spinal nerve at the level of L5 was tightly ligated (4-0 silk suture) distal to the dorsal root ganglion and prior to entrance into the sciatic nerve, as described by Kim and Chung. The incisions were closed and the rats were allowed to recover under conditions described above. This procedure results in mechanical allodynia in the left hind paw. The sham operation, when performed, consisted of a similar surgical procedure lacking only the final ligation of the spinal nerve. Mechanical (tactile) allodynia was assessed by recording the pressure at which the affected paw (ipsilateral to the site of nerve injury) was withdrawn from graded stimuli (von Frey filaments ranging from 4.0 to 148.1 mN) applied by hand perpendicularly to the plantar surface of the paw (between the footpads) through wire-mesh observation cages. A paw withdrawal threshold (PWT) was determined by sequentially increasing and decreasing the stimulus strength and analyzing withdrawal data using a Dixon non-parametric test, as described by Chaplan et al (Chaplan S. R., Bach F. W., Pogrel J. W., Chung J. M. and Yaksh T. L., Quantitative Assessment of Tactile Allodynia in the Rat Paw, J Neurosci Meth, 1994, 53, 55-63). Normal rats, sham operated rats, and the contralateral paw of L5 ligated rats withstand at least 148.1 mN (equivalent to 15 g) of pressure without responding. Spinal nerve ligated rats respond to as little as 4.0 mN (equivalent to 0.41 g) of pressure on the affected paw. […] The PWT was used to calculate the % maximal possible effect (% MPE) according to the formula:
% MPE=100×(PWT−CT)/(CO−CT).
As summarized in Table 1 below, the enantiomer of Formula (Ib) substantially free of other enantiomers was screened for antiallodynic activity in the Chung model of neuropathic pain at a dose of 30 mg/kg, po, with responses being measured at 0.5, 1, 2 and 4 hr post dosing.

Row | SMILES | % Change (paw-withdrawal force from controls) ([1]; 128 mg/Kg morphine, positive control) [%] | % Change (paw-withdrawal force from controls) ([1]; 10 mg/kg p.o., ligatured paw, 60 minute measurement, n=8, p ns) [%] | % Change (paw-withdrawal force from controls) ([1]; 30 mg/kg p.o., ligatured paw, 60 minute measurement, n=8, p <0.05) [%] | % Change (paw-withdrawal force from controls) ([1]; 100 mg/kg p.o., ligatured paw, 60 minute measurement, n=8, p <0.05) [%] | effect on the non-ligatured paw ([1]; 10, 30 and 100 mg/kg p.o., 60 minute measurement) | anti-allodynic effect at 90 min post-dosing ([1]; p.o., 90 min post-dosing) | % Maximum Possible Effect ([2]; 30 mg/kg, po, paw withdrawal threshold, activity seen at 30 min post-dosing, n=5) [%] | time course of antiallodynic activity ([2]; 30 mg/kg, po, responses measured at 0.5, 1, 2 and 4 hr post dosing) | dose dependence of antiallodynic responses ([2]; about 5 mg/kg, p.o. to about 45 mg/kg, p.o., 30 min) | time of peak antiallodynic effect ([2]; after oral dosing) [min] | maximum % MPE ([2]; highest dose tested (about 45 mg/kg, p.o.), 30 min after oral dosing, N=5) [%]
1 | CN1CC[C@]23c4c5ccc(O)c4O[C@H]2[C@@H](O)C=C[C@H]3[C@H]1C5 [morphine, Morphine, reference compound] | 38 | – | – | – | – | – | – | – | – | – | –
2 | NC(=O)OC[C@@H](O)c1ccccc1Cl [enantiomer of Formula (Ib)] | – | 65 | 80 | 72 | without affecting the non-ligatured paw | no longer present by 90 min post-dosing | 51 | exhibited antiallodynic activity at 30 min. post-dosing, and responses returned to baseline by one hour | dose-dependent | 30 | 60
